# Assay results as given in patent US20260327263A1, “Anti-Bacterial Peptides” (priority 2023, published 2026).
# Where “and” joins values, the source holds several entries; their conditions need not be identical. Equal values may be shown once. Entries after “also recorded” stand apart in the source; their conditions may differ. Where no end group is shown, it is not given here.
# What was measured:
# [1] = tested on: human red blood cells (hRBCs); experiment: Hemolysis assay; type: cell-based; settings: hRBCs; for minimum concentration corresponding to 10% hemolysis (HC): 37° C., 30 min; for hemolysis (in words): FIG. 8 up to 100 μM
# Procedure: (§1) The hemolytic score of the peptide variants and pexiganan (SEQ ID NO: 54) are compared to a strong hemolytic peptide, melittin 12 as a control. […] The minimum peptide concentration corresponding to 10% hemolysis (minimal hemolysis concentration, HC) of E1AM2=50 μM, V8LQ19L=12.5 μM, V8LQ19L C-2=3.125 μM, and pexiganan=12.5 μM respectively. Readings of the melittin at 3.125 μM were normalised to 100%.
# (§2) Examination of hemolytic activity of ultra-short peptides was performed by isolating the red blood cells (RBCs) from human blood samples by centrifugation (1000 g, 4° C., 10 min) and resuspension in 27 mL PBS. This washing step was repeated four times before the RBCs were diluted to a 10% (v/v) suspension. […] Hemolytic properties of E1AM2 and pexiganan were evaluated with melittin used as a positive control, and PBS as a negative control. The plates were incubated at 37° C., for 30 min and then centrifuged (1258 g, 4° C., 6 min). 75 μL of supernatant were transferred into a flat-bottom clear 96-well plate and the OD576 nm was read. Readings of the melittin sample at 3.125 μM were normalized to 100%.
# [2] = tested on: Staphylococcus aureus (SA); experiment: Time-kill assay, Staphylococcus aureus; type: cell-based; settings: for Time kill SA, >99% killing: at 1X MBC, * indicates killing within seconds
# Procedure: (§3) The bactericidal abilities of the variant peptides are not only effective, but also fast-acting. […] The killing kinetics are detailed in Table 11 below.
# (§4) Pseudomonas aeruginosa (PA) and Staphylococcus aureus (SA) strains were grown as per CLSI guidelines. AMPs were added to the bacterial cultures at their 1X MBC concentrations. Upon treatment, the bacterial cultures were enumerated for viable counts immediately within 1 min, 5 min, 15 min, 30 min and 60 min post-treatments.
# [3] = tested on: Pseudomonas aeruginosa PA CRM-9027; experiment: Broth microdilution, PA CRM-9027 (ear-eye infections); type: cell-based, Pseudomonas aeruginosa (CRM-9027); settings: PA CRM-9027
# Procedure: (§5) Bacteria strains involved in lung infection in cystic fibrosis patients (PA-BAA 2110) and ear-eye infections (PA-CRM 9027) are treated with exemplary variant peptides, such as E1AM2 and Q19L.
# (§6) Examination of the potency of modified short peptides against PA and SA strains was performed by using the broth microdilution protocol from the Clinical and Laboratory Standards Institute (CLSI) guidelines (CLSI 2012) as described. Briefly, five freshly plated bacteria colonies were grown in cation adjusted MH2 broth (BD Biosciences) in a shaker incubator at 37° C., 220 RPM. Cells were grown to an optical density (OD600) of ~0.2 measured using a Microplate Spectrophotometer (Molecular Devices Spectra Max Plus). 100 μL of microbial culture containing ~5×10^5 CFU/mL of bacteria in the respective broths were introduced into each well containing 100 μL of peptides and incubated overnight at 37° C. Next, to check the bactericidal effects, 100 μL from each well was transferred and spread on sterile MH2 agar plates. The plates were incubated overnight at 37° C. and the number of colonies forming units (CFU) were calculated the following day. Readings of bacteria grown in media without any treatments were normalized to 100% as media control. For the mixed infection study, three freshly plated bacteria colonies each from PA, SA and ST plates were grown together in cation adjusted MH2 broth and proceeded as described above.
# [4] = tested on: Pseudomonas aeruginosa (PA); experiment: Antimicrobial resistance evolution assay, PA; type: cell-based; settings: for development of antimicrobial resistance, PA: serial passaging, 28 days, resistance = >4-fold MIC change
# Description: (§7) The development of antimicrobial resistance is defined by greater than a 4-fold change to their initial minimum inhibitory concentration (MIC) at day 1. Exemplary bacteria strains Pseudomonas aeruginosa (PA) and Staphylococcus aureus (SA) are subjected to continuous daily serial passaging over several days, with treatment of exemplary variant peptides E1AM2 (SEQ ID NO: 2) and Q19L (SEQ ID NO: […]) at subinhibitory concentrations. […] The treatments were discontinued when the MIC increased by more than four-fold from the initial MIC or when MIC reached >100 μM.
# (§8) Briefly, sequential passaging of PA, and SA cells was done with sub-inhibitory concentrations of antibiotics or E1AM2 up to 4 weeks. The cells grown in those concentrations of antibiotics or peptides were diluted to A600 nm (OD600) of ~0.2 and serially passaged daily with the same concentrations at 37° C. with agitation at 24 h intervals.
# [5] = tested on: Pseudomonas aeruginosa PA BAA-2110; experiment: Broth microdilution, PA BAA-2110 (lung infection in cystic fibrosis); type: cell-based, Pseudomonas aeruginosa (BAA-2110); settings: PA BAA-2110
# Procedure: as §5, §6
# [6] = tested on: Pseudomonas aeruginosa (PA); experiment: Broth microdilution anti-bacterial assay (CLSI), Pseudomonas aeruginosa; type: cell-based, Pseudomonas aeruginosa (ATCC 14213); settings: for MIC / MBC: PA; for MIC: overnight, 37° C., ≥99% inhibition; for MBC: ≥99% killing; for anti-bacterial activity (in words): PA and SA
# fibroblasts (HFF-1) = experiment: Cell proliferation assay, HFF-1 fibroblasts; type: cell-based; settings: 24 h; certain concentrations
# [7] = tested on: human keratinocytes (HaCaT); experiment: Cell proliferation assay, HaCaT keratinocytes; type: cell-based; settings: 100 μM; cell line not named in Table 15
# Procedure: (§9) Wound closure was compared with the untreated samples (circle, red highlight). For improved clarity, error bars have been omitted from this representation. […] Each value is the mean±SD (n=3). Statistical significance was assessed using ANOVA for multiple comparisons (Dunnett's multiple comparisons test). **** p<0.0001, *** p<0.001, ** p<0.01, *p<0.05, ns denotes nonsignificance, p >0.05.
# CyQUANT™ Direct Cell Proliferation Assay (ThermoFisher Scientific, Catalogue) was performed as per manufacturer's instructions to determine the safety of the peptides to human keratinocytes. […] The fluorescence intensity and number of stained cells were determined using the LionHeart FX Automated Microscope (BioTek, VT, USA).
# [8] = tested on: Pseudomonas aeruginosa (PA); experiment: Time-kill assay, Pseudomonas aeruginosa; type: cell-based; settings: for time to kill PA (in words): 1X MBC; for Time kill PA, >99% killing: at 1X MBC, * indicates killing within seconds
# Procedure: as §3, §4
# [9] = tested on: mixed bacterial infection (PA, SA and ST); experiment: Broth microdilution, mixed bacterial infection; type: cell-based; settings: mixed infection
# Procedure: Chronic wounds mostly present mixed infections where numerous pathogens colonize together.
# as §6
# [10] = Comparison of AMPs in clinical trial with V8LQ19L (Table 13); settings: ✓ / X
# [11] = tested on: Staphylococcus aureus (SA); experiment: Broth microdilution anti-bacterial assay (CLSI), Staphylococcus aureus; type: cell-based; settings: SA; for MIC: overnight, 37° C., ≥99% inhibition; for MBC: ≥99% killing
# Hemolysis assay = type: cell-based, human; settings: human, red blood cells; at respective MIC/MBC concentrations; melittin 3.125 μM = 100%
# Procedure: as §1, §2
# [12] = tested on: Staphylococcus aureus (SA); experiment: Antimicrobial resistance evolution assay, SA; type: cell-based; settings: serial passaging; resistance = >4-fold MIC change
# Description: as §7, §8
# human keratinocytes = experiment: 2D scratch assay, keratinocyte migration; type: cell-based
# Procedure: Wound healing is directly associated with the migration speed of keratinocytes. The migration speed of human keratinocytes in presence of E1AM2, V8L (SEQ ID NO: 19), and Q19L variants is tested in comparison with pexiganan (SEQ ID NO: 54). Migration speed of human keratinocytes assessed in a 2D scratch assay at D 0 and D 2 timepoints. Decrease in wound area over time was measured by applying an ImageJ plugin ‘Wound Healing Size Tool’ on bright-field images. The change in wound area over the course of 48 hours was used as a measure of the migration speed of keratinocytes. Each value is the mean±SD (n=3). The p-value was calculated using ANOVA for multiple comparisons (Dunnett's multiple comparisons test). **** p<0.0001. *** p<0.001. ** p <0.01. * p<0.05. […] Both peptides healed wound faster within their respective MIC and MBC concentrations. […] SEQ ID NO: 27=Q19L; SEQ ID NO: 2=E1AM2; SEQ ID NO: 19=V8L.
# as §9
# Wound areas of the human keratinocyte culture were assessed in presence of peptides in a 2D scratch assay at the 0 hour, and 48-hour time points by applying an ImageJ plugin, ‘Wound Healing Size Tool’ on brightfield images. Quantification of wound width was calculated by obtaining the averaged Euclidean distance between each paired pixel at the lateral wound edges. The change in wound area over the course of 48 hours was used as a measure of the migration speed of keratinocytes.
# Using the inverted BioTek Lionheart LX Automated Microscope, brightfield images were obtained at 4× magnification to observe the wound area at timepoints 0 (before treatment) and 48 hours-post treatment. Microscopy settings were maintained as focus offset (781.3 μm), illumination (2), integration Time (21) with no gain. To cover the entire well, montage images of four rows by three columns were stitched together by enabling the “image stitching” function and images were saved in tiff-format.
Substance,minimum concentration corresponding to 10% hemolysis (HC) [1],hemolysis (in words) [1],"Time kill SA, >99% killing [2]",MBC [3],MIC [3],"development of antimicrobial resistance, PA [4]",MBC [5],MIC [5],MIC [6],MBC [6],time to kill PA (in words) [8],"Time kill PA, >99% killing [8]",MIC [11],MBC [11],anti-bacterial activity (in words) [6],other results
"GIGKFLKKAKKFGKAFVKILKK-NH2 [Pexiganan, reference compound]",12.5 µM,none of the peptide variants or pexiganan caused significant hemolysis,1 min,3.125 µM,3.125 µM,developed resistance,6.25 µM,3.125 µM,3.125 µM,6.25 µM,took the longest time to kill >99% PA,>5 to 15 min,6.25 µM and 6.12 µM,12.5 µM,–,"AMR prevention / resistance induction ([4]; Table 15: in PA and SA, bacteria not named): Gives rise to AMR; MIC ([6]; listed as PEX): 3.128 µM and 3.125 µM; MBC ([6]; listed as PEX): 6.25 µM and 8.25 µM; HFF-1 proliferation (fibroblasts (HFF-1)): enhanced proliferation; Cytotoxicity at high concentration (100 μM) [7]: Cytotoxic; MBC [9]: 12.5 µM; MIC [9]: 6.25 µM; Broad spectrum activity [10]: ✓; Healing support [10]: ✓; MIC/MBC relative to E1AM2, SA [11]: two-higher value; MIC ([11]; listed as PEX): 6.25 µM and 6.26 µM; MBC ([11]; listed as PEX): 12.8 µM and 12.5 µM and 12.6 µM"
KKLLKKWLKLSKKALKLAL-NH2 [V8LQ19L C-2],3.125 µM,do not cause hemolysis,–,–,–,–,–,–,1.56 µM,1.56 µM,–,–,1.56 µM,1.56 µM,strong potency,hemolysis at 0.5 h (Hemolysis assay): ~0%
KKLLKKWVKLSKKALKLALSL-NH2 [Q19L],–,–,1 min,6.25 µM,6.25 µM,prevented resistance acquisition,6.25 µM,6.25 µM,3.125 µM,3.125 µM and 6.25 µM,within minutes,>1.5 min,3.125 µM,3.125 µM,reduction in the minimum inhibitory concentration (MIC) and minimum bactericidal concentration (MBC) values,"time to kill SA (in words) ([2]; 1X MBC): within minutes; development of antimicrobial resistance, SA [12]: prevented resistance development; migration speed of keratinocytes (human keratinocytes; 48 h, E1AM2 3.125-12.5 μM, Q19L 3.125-6.25 μM): increase keratinocyte migration; also recorded: increased the migration speed of keratinocytes significantly; migration delay of keratinocytes (human keratinocytes; only at highest concentrations (100 μM)): significant migration delay"
